Experimental findings from patent US20210002231A1 (Centre National de la Recherche Scientifique, priority 2018, published 2021) are described below.

Assay [1] addresses T1, human NPFF1R (Homo sapiens, UniProt Q9GZQ6). Briefly: Radioligand competition binding with [125I]-1-DMe-NPFF. Also on record: expressed in transfected cells; HEK293-Glo20F cells (cAMP).
For assay [2], the target named is T2, human MOPr (Homo sapiens, UniProt P35372). Briefly: BRET1 β-arrestin-2 recruitment assay.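 For MOPr (β-arrestin-2) Emax: Emax relative to maximal DAMGO-induced BRET as 100%.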 It is filed as cell-based. Also on record: expressed in transfected cells; host or cells: HEK293 cells stably expressing eYFP-β-arrestin-2, transiently transfected with the Rluc8-MOP plasmid. The following applies: for EC50: Table 3B, — = non-detectable recruitment, read-out: MOPr (β-arrestin-2) EC50; for Emax: read-out: MOPr (β-arrestin-2) Emax. The method, then:
Peak response amplitudes were normalized to basal and maximal (cells permeabilized with 20 μM digitonin) fluorescence levels. 1.8. β-Arrestin-2 recruitment assay The β-arrestin-2 recruitment assay was performed as described [34; 45] with minor modifications. Briefly, two days prior the experiment, HEK293 cells stably expressing eYFP-tagged β-arrestin-2 were transfected with the plasmid encoding Rluc8-MOP receptor. β-Arrestin-2 recruitment was measured at 37° C. in presence of 5 μM Coelenterazine H, 5 min after agonist addition.

Assay [3] concerns the target T2, human MOPr. Briefly: cell-based. Also on record: expressed in transfected cells; HEK293-Glo20F cells (cAMP). The following applies: for EC50: read-out: MOPr (cAMP) EC50; for Emax: read-out: MOPr (cAMP) Emax. It is filed as cell-based. The essentials:
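GTPγS binding used membranes of CHO cells expressing NPFF1R or NPFF2R, stimulated by RF-amide peptides or test compounds. cAMP was measured in HEK293 cells stably carrying Glosensor-20F, with or without stable expression of an opioid receptor or NPFF1R, in the presence of 1 mM D-luciferin.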

For assay [4], the target named is T3, NPFF2R (Homo sapiens, UniProt Q9Y5X5). Briefly: Glo-sensor cAMP assay, agonist and antagonist mode. It counts as cell-based. Set-up: expressed in transfected cells; HEK293-Glo20F cells (cAMP). The following applies: evaluated at 0.5 and 5 μM.
The target of assay [5] is T3, NPFF2R. Kind of assay: Radioligand competition binding with [125I]-1-DMe-NPFF. Set-up: expressed in transfected cells; HEK293-Glo20F cells (cAMP).
Assay [6] has as its target T1, human NPFF1R. Kind of assay: [35S]-GTPγS binding assay. Also on record: expressed in transfected cells. The following applies: for Emax: relative to RFRP3. It is filed as biochemical. The method, then:
(§1) Stimulation by endogenous RF-amide peptides or test compounds for [^35S]-GTPγS binding to membranes from CHO cells expressing human NPFF1R or NPFF2R, were examined as reported. 1.6. Glo-Sensor cAMP Assay cAMP accumulation assay was essentially done as described with the following modifications: HEK293 cells stably expressing cAMP Glosensor-20F were used, with or without additional stable expression of each individual opioid receptor or NPFF1R. The cAMP responses were measured in presence of D-luciferin (1 mM).

Assay [7] concerns the target T3, NPFF2R. Briefly: [35S]-GTPγS binding assay. It is filed as biochemical. Also on record: expressed in transfected cells. The method, then:
as §1

The target of assay [8] is T2, human MOPr. Kind of assay: Radioligand competition binding with [3H]-diprenorphine. Also on record: expressed in transfected cells; HEK293-Glo20F cells (cAMP).
Setting [9] is: Table 3a, HEK293-Glo20F-hMOPr cells.

Structures are written as SMILES. Starred links: 1 amine or outer side, 2 acyl side, 3 side chain; linkers in the order of their positions; H or OH if unused. Non-standard residues stand in square brackets, D forms with d. Residues, ends and D or L forms follow the SMILES beside them. *: point of attachment. Nva(5-(4-Bn-piperidin-1-yl)) = N[C@@H](CCCN1CCC(Cc2ccccc2)CC1)C(=O)O; X1 = O=C1[C@@H](N[*:1])Cc2ccccc2CN1CCC(=O)[*:2]; Dmt = Cc1cc(O)cc(C)c1C[C@H](N)C(=O)O; X2 = c1ccc2[nH]c(*)nc2c1; X3 = c1ccc2oc(*)nc2c1; X4 = c1ccc2sc(*)nc2c1 A value given as a limit tells only on which side of the number the result lay.
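Throughout, for MOPr (cAMP) Emax: Emax relative to DAMGO as 100%.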

T2 sequence (P35372 whole entry): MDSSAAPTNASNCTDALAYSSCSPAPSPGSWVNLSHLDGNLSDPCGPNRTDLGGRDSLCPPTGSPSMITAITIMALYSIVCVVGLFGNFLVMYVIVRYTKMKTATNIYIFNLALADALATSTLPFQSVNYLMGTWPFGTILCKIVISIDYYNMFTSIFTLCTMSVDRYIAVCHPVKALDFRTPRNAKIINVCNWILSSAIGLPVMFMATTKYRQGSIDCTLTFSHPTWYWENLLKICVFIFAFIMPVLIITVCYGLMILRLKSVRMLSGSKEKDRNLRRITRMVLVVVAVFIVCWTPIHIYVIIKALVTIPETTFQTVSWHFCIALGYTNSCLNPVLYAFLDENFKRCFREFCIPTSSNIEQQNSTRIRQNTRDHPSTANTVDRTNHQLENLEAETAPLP
T3 sequence (Q9Y5X5 whole entry): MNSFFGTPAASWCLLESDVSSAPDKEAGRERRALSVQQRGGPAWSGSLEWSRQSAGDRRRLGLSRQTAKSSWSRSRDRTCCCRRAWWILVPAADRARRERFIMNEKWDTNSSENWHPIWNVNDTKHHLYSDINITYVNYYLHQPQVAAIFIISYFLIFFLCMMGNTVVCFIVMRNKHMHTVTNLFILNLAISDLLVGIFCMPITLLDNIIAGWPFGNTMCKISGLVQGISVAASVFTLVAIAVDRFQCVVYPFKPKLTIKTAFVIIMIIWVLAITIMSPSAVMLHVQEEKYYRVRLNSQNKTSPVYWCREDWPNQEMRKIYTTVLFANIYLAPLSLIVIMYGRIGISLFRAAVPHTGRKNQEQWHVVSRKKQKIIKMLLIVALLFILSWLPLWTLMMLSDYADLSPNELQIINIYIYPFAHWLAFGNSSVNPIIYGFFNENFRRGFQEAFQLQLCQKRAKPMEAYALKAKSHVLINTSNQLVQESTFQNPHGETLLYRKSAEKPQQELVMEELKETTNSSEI
T1 sequence (Q9GZQ6 whole entry): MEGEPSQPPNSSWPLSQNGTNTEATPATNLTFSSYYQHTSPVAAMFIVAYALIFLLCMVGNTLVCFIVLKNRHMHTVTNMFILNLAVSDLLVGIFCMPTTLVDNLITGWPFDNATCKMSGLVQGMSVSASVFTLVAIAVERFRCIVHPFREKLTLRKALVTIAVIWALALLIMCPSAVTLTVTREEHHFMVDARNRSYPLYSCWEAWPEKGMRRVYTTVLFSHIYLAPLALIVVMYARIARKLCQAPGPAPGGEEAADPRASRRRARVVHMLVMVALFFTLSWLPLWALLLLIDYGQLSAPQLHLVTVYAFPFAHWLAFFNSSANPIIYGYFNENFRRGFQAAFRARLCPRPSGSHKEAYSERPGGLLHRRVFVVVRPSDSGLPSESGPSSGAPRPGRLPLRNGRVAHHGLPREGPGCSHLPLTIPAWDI

As for `Cc1cc(O)cc(C)c1C[C@H](N)C(=O)N[C@H](CCCNC(=N)N)C(=O)N[C@H]1Cc2ccccc2CN(CCC(=O)N[C@@H](CCCN2CCC(Cc3ccccc3)CC2)C(=O)N[C@H](C(N)=O)C(C)C)C1=O` [DP0001, H-Dmt-D-Arg-Aba-β-Ala-Bpa-Val-NH2] (H-[Dmt][dR][X1][Nva(5-(4-Bn-piperidin-1-yl))]V-NH2), the values for the IC50 at human NPFF1R [1] and at NPFF2R [5] were approximately 500 nM and less than 50 nM, respectively. The EC50 on human MOPr [2] was determined as 101 nM; at human MOPr [3] (Table 3B) it was 16.9 ± 8.3 nM. For the same molecule, the Emax at human MOPr [2] amounted to 52%; at human MOPr [3], 124%. The “NPFF2R (cAMP) Agonist mode” value at NPFF2R [4] is “Partial”.

`Cc1cc(O)cc(C)c1C[C@H](N)C(=O)N[C@H](CCCNC(=N)N)C(=O)N[C@H]1Cc2ccccc2CN(CCC(=O)N[C@@H](CCCCNc2nc3ccccc3[nH]2)C(=O)N[C@@H](Cc2ccccc2)C(N)=O)C1=O` [KGFF14, H-Dmt-D-Arg-Aba-β-Ala-Lys(Bim)-Phe-NH2] (H-[Dmt][dR][X1]K(X2)F-NH2): the Ki at human NPFF1R [1] was 4.54 ± 0.01 nM; on human MOPr [8], 1.6 ± 0.3 nM; on NPFF2R [5], 4.15 ± 1.35 nM. The EC50 worked out at 76 ± 26 nM at human NPFF1R [6], 89 ± 7 nM at NPFF2R [7] and 5.9 ± 2.5 nM at human MOPr [3] (setting [9]). The Emax on human NPFF1R [6] is 74 ± 1%; on NPFF2R [7], 73 ± 18%; on human MOPr [3], 99 ± 4%.

On to `Cc1cc(O)cc(C)c1C[C@H](N)C(=O)N[C@H](CCCNC(=N)N)C(=O)N[C@H]1Cc2ccccc2CNC1=O` [KGFF12, H-Dmt-D-Arg-Aba-NH], for which the figures for the inhibitory constant (Ki) at human NPFF1R [1], on human MOPr [8] and on NPFF2R [5] were 2490 nM, 0.17 ± 0.05 nM and 375 ± 108 nM, respectively. The EC50 at human NPFF1R [6] is more than 10000 nM; on NPFF2R [7] it was more than 10000 nM; at human MOPr [3] (setting [9]) it was 2.7 ± 1.5 nM. Further, the Emax at human NPFF1R [6] was 13 ± 3%; on NPFF2R [7] it was 32 ± 17%; at human MOPr [3], 103 ± 4%.

As for `Cc1cc(O)cc(C)c1C[C@H](N)C(=O)N[C@H](CCCNC(=N)N)C(=O)N[C@H]1Cc2ccccc2CN(CCC(=O)N[C@@H](CCCN2CCC(Cc3ccccc3)CC2)C(=O)N[C@@H](CC(C)C)C(N)=O)C1=O` [DP0003, H-Dmt-D-Arg-Aba-β-Ala-Bpa-Leu-NH2] (H-[Dmt][dR][X1][Nva(5-(4-Bn-piperidin-1-yl))]L-NH2), the concentration for half-maximal inhibition (IC50) at human NPFF1R [1] was 50 to 500 nM; at NPFF2R [5], less than 50 nM. The EC50 on human MOPr [2] was found to be 37 nM; on human MOPr [3] (Table 3B), 20.1 ± 10 nM. For the same molecule, the Emax on human MOPr [2] is 38%; on human MOPr [3] it was 70%. Besides, the “NPFF2R (cAMP) Agonist mode” value on NPFF2R [4] is recorded as “Partial”.

Take `Cc1cc(O)cc(C)c1C[C@H](N)C(=O)N[C@H](CCCNC(=N)N)C(=O)N[C@H]1Cc2ccccc2CN(CC(=O)N[C@@H](CCCN)C(=O)N[C@@H](Cc2ccccc2)C(N)=O)C1=O` [KGFF04, H-Dmt-D-Arg-Aba-Gly-Orn-Phe-NH2]: the Ki on human NPFF1R [1] is 780 ± 90 nM; on human MOPr [8] it was 0.67 ± 0.29 nM; at NPFF2R [5], 45 ± 8 nM. For the same molecule, the EC50 is more than 10000 nM on human NPFF1R [6], 963 ± 168 nM at NPFF2R [7] and 9.5 ± 1.5 nM on human MOPr [3] (setting [9]). In addition, the Emax at human NPFF1R [6] turned out to be 25 ± 4%; on NPFF2R [7], 67 ± 3%; at human MOPr [3], 70 ± 4%.

Take `Cc1cc(O)cc(C)c1C[C@H](N)C(=O)N[C@H](CCCNC(=N)N)C(=O)N[C@H]1Cc2ccccc2CN(CCC(=O)N[C@@H](CCCCNc2nc3ccccc3s2)C(=O)N[C@@H](Cc2ccccc2)C(N)=O)C1=O` [KGFF16, H-Dmt-D-Arg-Aba-β-Ala-Lys(Bth)-Phe-NH2] (H-[Dmt][dR][X1]K(X4)F-NH2): the Ki at human NPFF1R [1] came to 80 ± 13 nM; on human MOPr [8], 2.6 ± 1.3 nM; on NPFF2R [5], 10.4 ± 2.3 nM. Also, the EC50 at human NPFF1R [6] came to 273 ± 115 nM; at NPFF2R [7], 526 ± 12 nM; at human MOPr [3] (setting [9]), 6.2 ± 2 nM. Also, the Emax on human NPFF1R [6] was 51 ± 7%; on NPFF2R [7] it was 88 ± 12%; on human MOPr [3], 93 ± 6%.

`Cc1cc(O)cc(C)c1C[C@H](N)C(=O)N[C@H](CCCNC(=N)N)C(=O)N[C@@H](Cc1ccccc1)C(N)=O` [KGFF07, H-Dmt-D-Arg-Phe-NH2] (HELM PEPTIDE1{[Cc1cc(O)cc(C)c1C[C@H](N)C(=O)[*:2]].[dR].F.[am]}$$$$V2.0): the Ki at human NPFF1R [1] was 11.8 ± 3.6 nM; at human MOPr [8], 0.29 ± 0.13 nM; at NPFF2R [5] it was 84 ± 26 nM. The EC50 at human NPFF1R [6] was found to be 87 ± 7 nM; at NPFF2R [7], 1930 nM; on human MOPr [3] (setting [9]), 1.7 ± 0.4 nM. Further, the figures for the Emax on human NPFF1R [6], at NPFF2R [7] and on human MOPr [3] were 84 ± 8%, 87 ± 2% and 102 ± 2%, respectively.

In the case of `CC[C@H](C)[C@H](NC(=O)[C@H](CCCN1CCC(Cc2ccccc2)CC1)NC(=O)CCN1Cc2ccccc2C[C@H](NC(=O)[C@@H](CCCNC(=N)N)NC(=O)[C@@H](N)Cc2c(C)cc(O)cc2C)C1=O)C(N)=O` [DP0002, H-Dmt-D-Arg-Aba-β-Ala-Bpa-Ile-NH2] (H-[Dmt][dR][X1][Nva(5-(4-Bn-piperidin-1-yl))]I-NH2), the concentration for half-maximal inhibition (IC50) is 50 to 500 nM at human NPFF1R [1] and less than 50 nM at NPFF2R [5]. Further, the figures for the EC50 at human MOPr [2] and at human MOPr [3] (Table 3B) were 45 nM and 8.9 ± 2.6 nM, respectively. Also, the Emax on human MOPr [2] turned out to be 49%; on human MOPr [3] it was 110%. The “NPFF2R (cAMP) Agonist mode” value on NPFF2R [4] is “Partial”.

`Cc1cc(O)cc(C)c1C[C@H](N)C(=O)N[C@H](CCCNC(=N)N)C(=O)N[C@H]1Cc2ccccc2CN(CCC(=O)N[C@@H](CCCCNc2nc3ccccc3o2)C(=O)N[C@@H](Cc2ccccc2)C(N)=O)C1=O` [KGFF15, H-Dmt-D-Arg-Aba-β-Ala-Lys(Box)-Phe-NH2] (H-[Dmt][dR][X1]K(X3)F-NH2): the inhibition constant Ki on human NPFF1R [1] came out at 88 ± 8 nM; at human MOPr [8], 1.8 ± 0.9 nM; on NPFF2R [5] it was 9.6 ± 0.6 nM. Also, the EC50 at human NPFF1R [6] worked out at 1020 nM; at NPFF2R [7], 930 ± 210 nM; at human MOPr [3] (setting [9]), 4.1 ± 1.7 nM. Moreover, the results for the maximal response (Emax) on human NPFF1R [6], on NPFF2R [7] and at human MOPr [3] were 51 ± 5%, 105 ± 15% and 92 ± 13%, respectively.
